Laboratory results taken from US6803046B2, “Sincalide formulations” (Bracco International B.V., priority 2002, dated 2004).

Columns and labels:
[1] = Metal ion oxidative effects on sincalide with/without DTPA (RP-HPLC); assay type: physicochemical; conditions: analyzed within 8 hours
Method: Experiments were performed to determine whether these residues, as present in sincalide, were susceptible to oxidation by free metals. These experiments also examined the role of DTPA as a formulation excipient to chelate metals and thereby inhibit sincalide oxidation. FIGS. 2-4 show the three oxidized forms of sincalide containing either mono- or disulfoxides.
The experimental formulation (25 mL) solution with (+) and without (−) DTPA were individually spiked with nine metal ions, as summarized in Table 7.
Copper and manganese, in the absence of DTPA, have the greatest oxidative effect on the methionine residues of sincalide resulting in combined weight percentages of Met 3 and Met 6 monosulfoxides (vs sincalide) of 85.5 and 128.9, respectively. In addition to the presence of sincalide Met 3 and Met 6 monosulfoxides (tR≈14.8 min. {doublet} and tR≈18 min.), formation of sincalide disulfoxide (tR≈6.5 min.) was also noted in the cases of copper and manganese, but not with the other metals.

gallbladder = conditions: patients pretreated before hepatobiliary imaging; typical; cited from earlier work

CSCC[C@H](NC(=O)[C@H](Cc1ccc(OS(=O)(=O)O)cc1)NC(=O)[C@@H](N)CC(=O)O)C(=O)NCC(=O)N[C@@H](Cc1c[nH]c2ccccc12)C(=O)N[C@@H](CCSC)C(=O)N[C@@H](CC(=O)O)C(=O)N[C@@H](Cc1ccccc1)C(N)=O [Sincalide, 1-De(5-oxo-L-glutamine-5-L-proline)-2-de-L-methioninecaerulein]
combined percentages of Met 3 and Met 6 monosulfoxides (vs sincalide) ([1]; experimental formulation without DTPA spiked with copper (0.63 mM Cu2+)): 85.5% | combined percentages of Met 3 and Met 6 monosulfoxides (vs sincalide) ([1]; experimental formulation without DTPA spiked with manganese (0.18 mM Mn2+)): 128.9% | time to gallbladder contraction after sincalide injection (gallbladder): ≤ 15 min
